Reference: patent US6410533B1, “Antibacterial compounds” (Genzyme Corporation, priority 2000, dated 2002)
Converted amounts (≈) assume the structure as drawn. Where two headings read alike, the source gives them in different places.

Legend:
[1] = system: Staphylococcus aureus bacteria (ATCC 9604 SV); experiment: Minimal inhibitory concentration (MIC), broth microdilution; format: cell-based; conditions: 24 h at 37° C.
Summary of the method: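 MIC: broth microdilution per NCCLS in Mueller-Hinton broth; overnight culture adjusted to 0.05 McFarland and diluted twenty-fold into compound-containing broth. IC50: inoculum at 0.1 McFarland diluted two-fold into TB broth with compound, 3–5 h at 37° C. Turbidity at 550 nm; IC50 is the concentration giving 50% growth inhibition.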

[2] = system: methicillin-resistant Staphylococcus aureus (ATCC 33591); experiment: In vivo mouse intraperitoneal infection, mortality and % survivors over 7 days; conditions: MRSA ATCC 33591 i.p., ICR mice; for In Vivo, double dose (% of mice rescued): 1 and 5 h post inoculation; for In Vivo, single dose (% of mice rescued): single dose 1 h post inoculation
Procedure: Ten male ICR mice weighing 20 grams were inoculated intraperitoneally with an LD90-100 dose (2-3×10^7 CFU/mouse) of methicillin-resistant Staphylococcus aureus (ATCC 33591) in brain-heart infusion broth containing 5% mucin. Compounds were suspended in a vehicle containing 1% cremophore EL (Sigma) in normal saline and were administered subcutaneously in a volume of 0.4 ml per mouse either 1 hour following bacterial inoculation or 1 and 5 hours post inoculation. Animals receiving two doses of drug were injected subcutaneously in the hindquarter one hour post-innoculation and in the neck area, 5 hours post-innoculation. Deaths occurring during the subsequent 7 days are recorded. Mortality and % survivor endpoints are calculated.

[3] = system: Staphylococcus aureus bacteria (ATCC 9604 SV); experiment: IC50 determination, growth inhibition by turbidity at 550 nm; format: cell-based; conditions: Staphylococcus aureus ATCC 9604 SV, turbidity at 550 nm after 3-5 h at 37° C.
Procedure: Minimal inhibitory concentrations (MICs) for Staphylococcus aureus bacteria (ATCC 9604 SV) were determined by broth microdilution methodology following National Committee for Clinical Laboratory Standards. In the MIC determinations, the compounds were incorporated into Mueller-Hinton broth (Becton Dickinson Microbiology systems, Cockeyville, Md.) at a series of concentrations. After the test organism was grown overnight in TB broth, the broths were adjusted to the turbidity equivalent to 0.05 McFarland standard. The suspensions were diluted twenty-fold into the broth containing the compounds. […] In the IC50 determination, the method was modified to allow the rapid growth of the organisms. The inoculum suspensions were adjusted to 0.1 McFarland standard and then diluted two-fold into the wells containing TB broth and the compounds. After three to five hours incubation at 37° C., the turbidity was measured at 550 nm and inhibitory activity was defined as the concentration of antimicrobial agent that inhibits 50% growth of the organism in the microdilution wells.

[4] = ATCC9604, Staphylococcus aureus ATCC 9604 SV, read-out: MIC
[5] = Staphylococcus aureus ATCC 9604 SV

Compound | MIC [1, 5] [µg/mL] | IC50 [3] [nM] | other results
O=C1CC(c2ccccc2)=NN1c1cc(Cl)cc(Cl)c1 [Compound 1, 2-(3,5-Dichloro-phenyl)-5-phenyl-2,4-dihydro-pyrazol-3-one] | – | – | MIC [1, 4]: 0.122 µg/mL (≈ 0.4 µM); In Vivo, double dose (% of mice rescued) ([2]; 2 × 2 mg/kg s.c.): 0% @ 2 × 2 mg/kg; In Vivo, double dose (% of mice rescued) ([2]; 2 × 20 mg/kg s.c.): 25% @ 2 × 20 mg/kg; IC50 ([3]; ATCC9604): 540 nM
O=C1CC(c2ccccc2)=NN1c1ccc(Cl)c(Cl)c1 [Compound 2] | 1.91 (≈ 6.26 µM) | 449 | In Vivo, double dose (% of mice rescued) ([2]; 2 × 2 mg/kg s.c.): 0% @ 2 × 2 mg/kg; In Vivo, double dose (% of mice rescued) ([2]; 2 × 20 mg/kg s.c.): 0% @ 2 × 20 mg/kg
COc1ccc(C=C2C(=O)N(c3cc(Cl)cc(Cl)c3)N=C2c2ccccc2)cc1 [Compound 3, 2-(3,5-Dichloro-phenyl)-4-(4-methoxy-benzylidene)-5-phenyl-2,4-dihydro-pyrazol-3-one] | – | – | MIC [1, 4]: 1.3 µg/mL (≈ 3.07 µM); In Vivo, double dose (% of mice rescued) ([2]; 2 × 2 mg/kg s.c.): 25% @ 2 × 2 mg/kg; In Vivo, double dose (% of mice rescued) ([2]; 2 × 20 mg/kg s.c.): 25% @ 2 × 20 mg/kg; IC50 ([3]; ATCC9604): 985 nM
CC(C)(C)c1cc(NC(=O)Nc2cc(C(F)(F)F)cc(C(F)(F)F)c2)n(-c2ccc(C(F)(F)F)cc2)n1 [Compound 72] | 0.808 (≈ 1.5 µM) | 58 | In Vivo, single dose (% of mice rescued) ([2]; 2 mg/kg s.c.): 0% @ 2 mg/kg; In Vivo, single dose (% of mice rescued) ([2]; 20 mg/kg s.c.): 0% @ 20 mg/kg
O=C(Nc1cc(C(F)(F)F)cc(C(F)(F)F)c1)Nc1cc(-c2ccccc2)nn1-c1ccc(C(F)(F)F)cc1 [Compound 76, 1-(3,5-Bis-trifluoromethyl-phenyl)-3-[5-phenyl-2-(4-trifluoromethyl-phenyl)-2H-pyrazol-3-yl]-urea] | – | – | MIC [1, 4]: < 0.838 µg/mL; In Vivo, single dose (% of mice rescued) ([2]; 2 mg/kg s.c.): 0% @ 2 mg/kg; In Vivo, single dose (% of mice rescued) ([2]; 20 mg/kg s.c.): 0% @ 20 mg/kg; IC50 ([3]; ATCC9604): 54 nM
O=C(Nc1cc(Cl)cc(Cl)c1)Nc1cc(-c2ccccc2)nn1-c1ccc(C(F)(F)F)cc1 [Compound 77] | 12.3 (≈ 25 µM) | 81 | In Vivo, single dose (% of mice rescued) ([2]; 2 mg/kg s.c.): 0% @ 2 mg/kg; In Vivo, single dose (% of mice rescued) ([2]; 20 mg/kg s.c.): 12.5% @ 20 mg/kg
O=C(Nc1cc(Cl)cc(Cl)c1)Nc1c2c(nn1-c1ccc(Br)cc1)CCCC2 [Compound 105] | >24.0 | 3210 | –
Cc1cnc(NC(=O)Nc2cc(C(F)(F)F)cc(C(F)(F)F)c2)s1 [Compound 122] | >18.5 | 2720 | –
O=C(O)Cc1csc(NC(=O)Nc2cc(C(F)(F)F)cc(C(F)(F)F)c2)n1 [Compound 127] | >20.7 | 29300 | –
O=C(Nc1cc(C(F)(F)F)cc(C(F)(F)F)c1)Nc1nc(-c2ccc(CO)cc2)cs1 [Compound 145] | >23.1 | 3740 | –
O=C(Nc1cc(C(F)(F)F)cc(C(F)(F)F)c1)Nc1nc(-c2ccc(CCO)cc2)cs1 [Compound 146] | 2.71 (≈ 5.7 µM) | 1610 | –
O=C(Nc1cc(C(F)(F)F)cc(C(F)(F)F)c1)Nc1nc(-c2cc(CO)no2)cs1 [Compound 154] | >22.6 | 20100 | –
O=C(NCc1ccc(Cl)c(Cl)c1)Nc1nc(-c2ccc(F)c(F)c2)cs1 [Compound 182] | 5.18 (≈ 12.5 µM) | 2850 | –
CC(NC(=O)Nc1nc(-c2ccc(Br)cc2)cs1)C(O)c1ccccc1 (stereo not drawn) [Compound 183] | 10.8 (≈ 25 µM) | 6380 | –

More lines, in order of falling IC50 [3], values ahead:

MIC [1, 5] [µg/mL] | IC50 [3] [nM] | Compound | other results
11.4 (≈ 25 µM) | 944 | CCOC(=O)C(=O)c1csc(NC(=O)Nc2cc(C(F)(F)F)cc(C(F)(F)F)c2)n1 [Compound 129] | –
>21.7 | 910 | O=C(Nc1nc(-c2ccc(Cl)cc2)cs1)Nc1cc(Cl)c(Cl)cc1Cl [Compound 170] | –
>20.7 | 661 | Cc1cc(-c2csc(NC(=O)Nc3ccc(F)c(C(F)(F)F)c3)n2)ccc1F [Compound 169] | –
10.2 (≈ 24.9 µM) | 612 | C=CCCc1csc(NC(=O)Nc2cc(C(F)(F)F)cc(C(F)(F)F)c2)n1 [Compound 126] | –
1.15 (≈ 3 µM) | 520 | Cc1nc(NC(=O)Nc2cc(C(F)(F)F)cc(C(F)(F)F)c2)sc1C [Compound 123] | –
1.19 (≈ 2.99 µM) | 461 | O=C(Nc1ccc(OC(F)F)cc1)Nc1nc(-c2ccc(F)c(F)c2)cs1 [Compound 160] | –
>27.4 | 459 | O=C(Nc1cc(C(F)(F)F)cc(C(F)(F)F)c1)Nc1c2c(nn1-c1ccc(Br)cc1)CCCC2 [Compound 106] | –
1.72 (≈ 3 µM) | 402 | Cc1cc(-c2cc(NC(=O)Nc3cc(C(F)(F)F)cc(C(F)(F)F)c3)n(-c3ccc(Br)cc3)n2)no1 [Compound 115] | –
23.4 (≈ 50.9 µM) | 367 | O=C(Nc1cc(C(F)(F)F)cc(C(F)(F)F)c1)Nc1nc(CCc2ccccc2)cs1 [Compound 131] | –
2.40 (≈ 6.01 µM) | 364 | O=C(Nc1ccc(F)c(C(F)(F)F)c1)Nc1nc(-c2cccc(F)c2)cs1 [Compound 165] | –
1.22 (≈ 3.01 µM) | 295 | O=C(Nc1cc(C(F)(F)F)cc(C(F)(F)F)c1)Nc1nc2ccccc2s1 [Compound 156] | –
1.34 (≈ 3.01 µM) | 275 | O=C(Nc1cc(C(F)(F)F)cc(C(F)(F)F)c1)Nc1nc(Cc2ccccc2)cs1 [Compound 130] | –
1.31 (≈ 3 µM) | 259 | O=C(Nc1cc(C(F)(F)F)cc(C(F)(F)F)c1)Nc1nc(-c2cccs2)cs1 [Compound 155] | –
0.755 (≈ 1.5 µM) | 239 | O=C(Nc1cc(Cl)cc(Cl)c1)Nc1cc(-c2ccncc2)nn1-c1ccc(Br)cc1 [Compound 118] | –
6.22 (≈ 12.5 µM) | 235 | O=C(Nc1cc(C(F)(F)F)cc(C(F)(F)F)c1)Nc1nc(-c2ccc(OC(F)F)cc2)cs1 [Compound 142] | –
0.855 (≈ 1.5 µM) | 163 | O=C(Nc1cc(C(F)(F)F)cc(C(F)(F)F)c1)Nc1cc(-c2ccncc2)nn1-c1ccc(Br)cc1 [Compound 119] | –
<0.647 | 134 | O=C(Nc1ccc(SC(F)(F)F)cc1)Nc1nc(-c2ccc(F)c(F)c2)cs1 [Compound 161] | –
1.40 (≈ 2.8 µM) | 129 | O=C(Nc1cc(C(F)(F)F)cc(C(F)(F)F)c1)Nc1nc(-c2ccc(C(F)(F)F)cc2)cs1 [Compound 143] | –
1.35 (≈ 3 µM) | 107 | O=C(Nc1cc(C(F)(F)F)cc(C(F)(F)F)c1)Nc1nc(-c2cccc(F)c2)cs1 [Compound 135] | –
